The numbers were not newly measured in patent US20220211661A1, “GREEN TEA CATECHINS EUTECTIC SYSTEM” (ASSISTANCE PUBLIQUE - HOPITAUX DE PARIS, priority 2019, published 2022), which cites them from elsewhere.

The conditions of the series: after 1-h ultra violet irradiation.

On to (-)-epigallocatechin-3-gallate [EGCG], for which the EGCG decomposed is 70%.
